The source of these data is ChEMBL document CHEMBL1144239, “Identification of novel protein kinase CK1 delta (CK1delta) inhibitors through structure-based virtual screening” (Bioorg Med Chem Lett, 2008).

Broadly, the IC50 is the concentration that inhibits the measured activity by half. Read a low IC50 as greater potency in that assay.

Test [1] is described as follows: Cytotoxicity against human ovarian carcinoma cells after 48 hrs. Format: functional, cell-based. Conditions: Ovarian carcinoma cell.
Test [2] concerns the target Casein kinase I isoform delta (Homo sapiens, UniProt P48730). Put plainly: Inhibition of CK1delta.
In test [3] the target is Casein kinase I isoform gamma-1 (Homo sapiens, UniProt Q9HCP0). Put plainly: Inhibition of CK1gamma1.
Sequence of Casein kinase I isoform gamma-1 (Q9HCP0 whole entry, canonical isoform): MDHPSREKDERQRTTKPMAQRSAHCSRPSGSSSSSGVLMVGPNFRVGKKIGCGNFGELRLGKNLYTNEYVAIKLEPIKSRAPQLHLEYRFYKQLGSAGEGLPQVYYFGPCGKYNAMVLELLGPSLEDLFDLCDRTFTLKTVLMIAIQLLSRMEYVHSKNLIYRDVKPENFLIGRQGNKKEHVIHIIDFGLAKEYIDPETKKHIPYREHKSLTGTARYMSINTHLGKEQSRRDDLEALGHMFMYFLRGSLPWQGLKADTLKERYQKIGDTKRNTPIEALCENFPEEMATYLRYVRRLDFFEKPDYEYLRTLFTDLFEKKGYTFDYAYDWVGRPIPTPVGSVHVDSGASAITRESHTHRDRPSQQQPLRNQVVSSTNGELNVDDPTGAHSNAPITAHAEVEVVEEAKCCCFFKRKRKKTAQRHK
Test [4] deals with Casein kinase I isoform alpha (Homo sapiens, UniProt P48729). The test can be described thus: Inhibition of CK1alpha.
Sequence of Casein kinase I isoform alpha (P48729 whole entry, canonical isoform): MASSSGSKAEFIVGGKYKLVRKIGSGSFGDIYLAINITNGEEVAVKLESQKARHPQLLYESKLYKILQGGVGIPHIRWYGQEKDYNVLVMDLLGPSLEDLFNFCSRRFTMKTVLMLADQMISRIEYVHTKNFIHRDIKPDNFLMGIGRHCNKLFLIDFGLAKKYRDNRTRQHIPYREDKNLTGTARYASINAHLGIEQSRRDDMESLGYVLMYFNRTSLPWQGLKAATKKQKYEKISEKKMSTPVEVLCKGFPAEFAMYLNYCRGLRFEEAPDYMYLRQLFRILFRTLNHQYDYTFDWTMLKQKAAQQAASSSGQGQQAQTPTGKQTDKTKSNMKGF
Test [5] in a line: Cytotoxicity against cisplatin-resistant human C13 cells after 48 hrs. In kind it is functional, cell-based. Conditions: C13, 48 h.
Test [6] concerns the target Homeodomain-interacting protein kinase 2 (Homo sapiens, UniProt Q9H2X6). The test can be described thus: Inhibition of HIPK2.
For test [7], the target named is Serine/threonine-protein kinase pim-1 (Homo sapiens, UniProt P11309). Put plainly: Inhibition of PIM1.
Sequence of Serine/threonine-protein kinase pim-1 (P11309 whole entry): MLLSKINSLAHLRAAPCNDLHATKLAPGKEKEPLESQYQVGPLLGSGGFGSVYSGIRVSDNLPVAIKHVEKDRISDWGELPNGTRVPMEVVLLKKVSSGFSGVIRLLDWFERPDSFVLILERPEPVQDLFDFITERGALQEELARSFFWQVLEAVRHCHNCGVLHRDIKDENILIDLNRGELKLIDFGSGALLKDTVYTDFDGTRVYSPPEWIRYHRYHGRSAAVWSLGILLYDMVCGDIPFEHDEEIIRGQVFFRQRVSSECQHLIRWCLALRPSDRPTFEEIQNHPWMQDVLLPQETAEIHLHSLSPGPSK
The target in test [8] is Dual specificity tyrosine-phosphorylation-regulated kinase 1A (Homo sapiens, UniProt Q13627). Put plainly: Inhibition of DYRK1a.
A short description of test [9]: Inhibition of PKA.
The target of test [10] is Tyrosine-protein kinase CSK (Homo sapiens, UniProt P41240). Put plainly: Inhibition of CSK.
Sequence of Tyrosine-protein kinase CSK (P41240 whole entry): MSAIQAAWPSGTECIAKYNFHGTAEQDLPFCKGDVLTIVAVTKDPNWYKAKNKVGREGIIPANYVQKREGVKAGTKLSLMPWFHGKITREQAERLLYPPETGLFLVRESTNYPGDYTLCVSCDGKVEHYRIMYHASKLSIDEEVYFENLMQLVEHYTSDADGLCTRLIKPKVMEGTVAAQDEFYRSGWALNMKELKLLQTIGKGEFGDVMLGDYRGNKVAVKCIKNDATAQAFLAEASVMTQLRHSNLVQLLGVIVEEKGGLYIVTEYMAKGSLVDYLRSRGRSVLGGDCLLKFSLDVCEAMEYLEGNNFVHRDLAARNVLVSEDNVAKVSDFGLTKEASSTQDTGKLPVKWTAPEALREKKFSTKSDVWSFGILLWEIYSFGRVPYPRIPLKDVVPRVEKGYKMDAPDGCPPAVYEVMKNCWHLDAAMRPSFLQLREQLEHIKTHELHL
Test [11] concerns the target Tyrosine-protein kinase Lyn (Homo sapiens, UniProt P07948). Put plainly: Inhibition of Lyn.
Test [12] has as its target Tyrosine-protein kinase SYK (Homo sapiens, UniProt P43405). The test can be described thus: Inhibition of Syk.
For test [13], the target named is Tyrosine-protein kinase Fgr (Homo sapiens, UniProt P09769). Put plainly: Inhibition of Fgr.
Sequence of Tyrosine-protein kinase Fgr (P09769 whole entry): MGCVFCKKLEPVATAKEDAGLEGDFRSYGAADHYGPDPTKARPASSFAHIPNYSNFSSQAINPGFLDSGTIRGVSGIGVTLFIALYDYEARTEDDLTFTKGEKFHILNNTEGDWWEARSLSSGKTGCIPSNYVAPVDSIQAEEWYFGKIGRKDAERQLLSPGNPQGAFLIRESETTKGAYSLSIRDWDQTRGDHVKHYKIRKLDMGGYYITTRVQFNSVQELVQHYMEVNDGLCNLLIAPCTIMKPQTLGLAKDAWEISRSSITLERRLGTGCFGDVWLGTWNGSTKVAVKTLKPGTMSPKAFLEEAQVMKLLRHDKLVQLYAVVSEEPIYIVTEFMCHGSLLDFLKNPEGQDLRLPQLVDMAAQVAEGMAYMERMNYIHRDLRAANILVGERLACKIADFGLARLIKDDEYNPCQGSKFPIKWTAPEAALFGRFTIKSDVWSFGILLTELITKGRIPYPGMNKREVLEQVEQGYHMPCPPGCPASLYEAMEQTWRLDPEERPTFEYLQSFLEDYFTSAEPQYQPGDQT
Test [14] addresses ALK tyrosine kinase receptor (Homo sapiens, UniProt Q9UM73). Put plainly: Inhibition of GST tagged ALK.
A short description of test [15]: Inhibition of CK2.
Test [16] in a line: Inhibition of CK1.

Sequence of Casein kinase I isoform delta (P48730 whole entry, canonical isoform): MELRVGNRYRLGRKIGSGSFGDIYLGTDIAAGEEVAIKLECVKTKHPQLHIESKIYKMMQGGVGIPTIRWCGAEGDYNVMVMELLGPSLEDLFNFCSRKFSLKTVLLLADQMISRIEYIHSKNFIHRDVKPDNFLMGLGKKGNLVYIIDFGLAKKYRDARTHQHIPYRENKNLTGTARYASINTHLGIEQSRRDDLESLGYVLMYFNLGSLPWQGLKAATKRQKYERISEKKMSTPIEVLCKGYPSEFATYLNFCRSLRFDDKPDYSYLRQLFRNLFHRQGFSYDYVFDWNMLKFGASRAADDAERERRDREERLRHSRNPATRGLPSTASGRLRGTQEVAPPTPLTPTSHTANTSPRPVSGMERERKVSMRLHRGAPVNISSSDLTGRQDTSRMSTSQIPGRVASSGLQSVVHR
Sequence of Homeodomain-interacting protein kinase 2 (Q9H2X6 whole entry): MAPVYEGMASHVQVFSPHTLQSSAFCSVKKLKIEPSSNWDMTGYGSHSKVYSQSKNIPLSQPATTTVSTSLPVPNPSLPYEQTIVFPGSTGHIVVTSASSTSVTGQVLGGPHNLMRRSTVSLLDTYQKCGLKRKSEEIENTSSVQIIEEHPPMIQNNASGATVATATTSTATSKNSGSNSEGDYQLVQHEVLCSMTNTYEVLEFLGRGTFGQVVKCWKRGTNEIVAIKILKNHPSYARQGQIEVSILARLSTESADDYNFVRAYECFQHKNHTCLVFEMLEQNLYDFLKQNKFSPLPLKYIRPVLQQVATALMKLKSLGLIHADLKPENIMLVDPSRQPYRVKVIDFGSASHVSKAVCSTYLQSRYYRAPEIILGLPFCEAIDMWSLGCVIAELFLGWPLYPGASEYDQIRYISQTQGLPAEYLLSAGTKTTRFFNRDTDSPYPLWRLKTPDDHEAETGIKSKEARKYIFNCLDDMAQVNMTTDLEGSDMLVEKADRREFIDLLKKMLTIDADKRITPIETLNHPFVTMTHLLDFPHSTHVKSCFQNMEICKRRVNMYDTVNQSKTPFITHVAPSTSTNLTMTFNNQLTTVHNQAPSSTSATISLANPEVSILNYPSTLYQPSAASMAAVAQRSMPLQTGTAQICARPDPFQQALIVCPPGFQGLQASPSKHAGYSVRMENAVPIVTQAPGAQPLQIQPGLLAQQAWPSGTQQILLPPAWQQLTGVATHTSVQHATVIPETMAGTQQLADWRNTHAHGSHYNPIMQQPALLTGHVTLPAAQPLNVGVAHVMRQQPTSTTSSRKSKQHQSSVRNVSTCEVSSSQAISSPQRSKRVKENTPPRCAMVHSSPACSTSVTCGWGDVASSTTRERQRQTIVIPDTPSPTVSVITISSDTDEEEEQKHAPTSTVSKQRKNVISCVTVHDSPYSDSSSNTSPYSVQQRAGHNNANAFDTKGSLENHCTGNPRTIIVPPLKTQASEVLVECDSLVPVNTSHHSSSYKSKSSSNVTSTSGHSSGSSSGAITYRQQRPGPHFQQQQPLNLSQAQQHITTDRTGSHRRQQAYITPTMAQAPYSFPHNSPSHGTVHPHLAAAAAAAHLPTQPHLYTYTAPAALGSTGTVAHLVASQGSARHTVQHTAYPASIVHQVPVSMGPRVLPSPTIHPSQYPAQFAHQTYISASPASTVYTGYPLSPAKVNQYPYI
Sequence of Tyrosine-protein kinase Lyn (P07948 whole entry): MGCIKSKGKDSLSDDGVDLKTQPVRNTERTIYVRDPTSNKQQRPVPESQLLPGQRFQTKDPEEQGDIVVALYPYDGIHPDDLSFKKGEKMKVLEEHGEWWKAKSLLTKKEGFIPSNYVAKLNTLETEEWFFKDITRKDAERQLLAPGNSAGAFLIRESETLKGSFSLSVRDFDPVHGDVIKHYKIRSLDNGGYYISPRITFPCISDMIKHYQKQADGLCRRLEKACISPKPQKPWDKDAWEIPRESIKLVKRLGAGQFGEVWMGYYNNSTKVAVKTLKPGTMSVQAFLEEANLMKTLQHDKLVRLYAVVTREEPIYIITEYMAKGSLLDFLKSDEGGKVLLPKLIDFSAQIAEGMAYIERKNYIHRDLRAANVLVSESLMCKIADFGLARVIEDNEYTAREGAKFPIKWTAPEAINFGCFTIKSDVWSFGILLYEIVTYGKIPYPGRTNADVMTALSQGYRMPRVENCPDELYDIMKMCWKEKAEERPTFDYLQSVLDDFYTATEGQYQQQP

Take `Nc1ccc(O)c2c1C(=O)c1ccccc1C2=O`: the IC50 was 122 µM in test [1]; 0.66 µM in [2]; 26.2 µM in [3]; 4 µM in test [4]; 8 µM in [5].

Consider `O=C1c2ccccc2C(=O)c2c(O)ccc(O)c21` [QUINIZARIN], for which the IC50 in [2], in test [3] and in test [4] was more than 40 µM throughout.

Consider `Nc1ccc(N)c2c1C(=O)c1ccccc1C2=O`, for which the IC50 in [1] amounted to 14.4 µM; in [2], 0.33 µM; in [3] it was 34 µM; in [4], 4 µM; in test [6] it was 3.3 µM; in test [7], 24.7 µM. The IC50 was 3.6 µM in [8]; more than 40 µM in [9]; more than 40 µM in test [10]; more than 40 µM in test [11]; more than 40 µM in [12]; 24 µM in [13]. Further, the IC50 is more than 40 µM in [14], 87.9 µM in test [5] and 18 µM in test [15].

For the compound `COc1cc(OC)c(C=C2C(=O)Nc3ccccc32)c(OC)c1` [IC261], the IC50 is 2.57 µM in [2], more than 40 µM in test [3], 1.24 µM in [4] and 1 µM in test [16].

`NCCNS(=O)(=O)c1ccc(Cl)c2ccncc12` showed an IC50 in test [16] of 6 µM. This lies in the single-digit micromolar range.

Turning to `NC(=O)c1ccc(-c2nc(-c3ccc4c(c3)OCCO4)c(-c3ccccn3)[nH]2)cc1`, in test [16], the IC50 was 0.3 µM.
